Measurements published in paper PMC7385619, “A triple action CDK4/6-PI3K-BET inhibitor with augmented cancer cell cytotoxicity” (Cell Discovery, 2020).

Tests used:
Assay in all cases: KINOMEscan assay (Eurofins DiscoverX)
Type in all cases: binding
kinome (kinase panel) [1] = biological target: T1, kinome (kinase panel) (Homo sapiens, UniProt O00238); settings: BMPR1B; 1000 nM; read-out: Percent Control
T1 construct: purchased Eurofins DiscoverX

kinome (kinase panel) [2] = biological target: T2, kinome (kinase panel) (Homo sapiens, UniProt O14965); settings: AURKA; 1000 nM; read-out: Percent Control
T2 construct: purchased Eurofins DiscoverX

kinome (kinase panel) [3] = biological target: T3, kinome (kinase panel) (Homo sapiens, UniProt O15197); settings: EPHB6; 1000 nM; read-out: Percent Control
T3 construct: purchased Eurofins DiscoverX

kinome (kinase panel) [4] = biological target: T4, kinome (kinase panel) (Homo sapiens, UniProt O94768); settings: DRAK2 (Entrez STK17B); 1000 nM; read-out: Percent Control
T4 construct: purchased Eurofins DiscoverX

kinome (kinase panel) [5] = biological target: T5, kinome (kinase panel) (Homo sapiens, UniProt O94804); settings: LOK (Entrez STK10); 1000 nM; read-out: Percent Control
T5 construct: purchased Eurofins DiscoverX

kinome (kinase panel) [6] = biological target: T6, kinome (kinase panel) (Homo sapiens, UniProt P00533, T790M); settings: […]; 1000 nM; read-out: Percent Control
T6 construct: purchased Eurofins DiscoverX

kinome (kinase panel) [7] = biological target: T7, kinome (kinase panel) (Homo sapiens, UniProt P09619); settings: PDGFRB; 1000 nM; read-out: Percent Control
T7 construct: purchased Eurofins DiscoverX

kinome (kinase panel) [8] = biological target: T8, kinome (kinase panel) (Homo sapiens, UniProt P0C1S8); settings: WEE2; 1000 nM; read-out: Percent Control
T8 construct: purchased Eurofins DiscoverX

kinome (kinase panel) [9] = biological target: T9, kinome (kinase panel) (Homo sapiens, UniProt P12931); settings: SRC; 1000 nM; read-out: Percent Control
T9 construct: purchased Eurofins DiscoverX

kinome (kinase panel) [10] = biological target: T10, kinome (kinase panel) (Homo sapiens, UniProt P15735); settings: PHKG2; 1000 nM; read-out: Percent Control
T10 construct: purchased Eurofins DiscoverX

kinome (kinase panel) [11] = biological target: T11, kinome (kinase panel) (Homo sapiens, UniProt P31749); settings: AKT1; 1000 nM; read-out: Percent Control
T11 construct: purchased Eurofins DiscoverX

kinome (kinase panel) [12] = biological target: T12, kinome (kinase panel) (Homo sapiens, UniProt P42338); settings: PIK3CB; 1000 nM; read-out: Percent Control
T12 construct: purchased Eurofins DiscoverX

kinome (kinase panel) [13] = biological target: T13, kinome (kinase panel) (Homo sapiens, UniProt P43405); settings: SYK; 1000 nM; read-out: Percent Control
T13 construct: purchased Eurofins DiscoverX

kinome (kinase panel) [14] = biological target: T14, kinome (kinase panel) (Homo sapiens, UniProt P45983); settings: JNK1 (Entrez MAPK8); 1000 nM; read-out: Percent Control
T14 construct: purchased Eurofins DiscoverX

kinome (kinase panel) [15] = biological target: T15, kinome (kinase panel) (Homo sapiens, UniProt P48729); settings: CSNK1A1; 1000 nM; read-out: Percent Control
T15 construct: purchased Eurofins DiscoverX

kinome (kinase panel) [16] = biological target: T16, kinome (kinase panel) (Homo sapiens, UniProt P48730); settings: CSNK1D; 1000 nM; read-out: Percent Control
T16 construct: purchased Eurofins DiscoverX

kinome (kinase panel) [17] = biological target: T17, kinome (kinase panel) (Homo sapiens, UniProt P51955); settings: NEK2; 1000 nM; read-out: Percent Control
T17 construct: purchased Eurofins DiscoverX

kinome (kinase panel) [18] = biological target: T18, kinome (kinase panel) (Homo sapiens, UniProt Q00526); settings: CDK3; 1000 nM; read-out: Percent Control
T18 construct: purchased Eurofins DiscoverX

kinome (kinase panel) [19] = biological target: T19, kinome (kinase panel) (Homo sapiens, UniProt Q08345); settings: DDR1; 1000 nM; read-out: Percent Control
T19 construct: purchased Eurofins DiscoverX

kinome (kinase panel) [20] = biological target: T20, kinome (kinase panel) (Homo sapiens, UniProt Q13163); settings: MEK5 (Entrez MAP2K5); 1000 nM; read-out: Percent Control
T20 construct: purchased Eurofins DiscoverX

kinome (kinase panel) [21] = biological target: T21, kinome (kinase panel) (Homo sapiens, UniProt Q13627); settings: DYRK1A; 1000 nM; read-out: Percent Control
T21 construct: purchased Eurofins DiscoverX

kinome (kinase panel) [22] = biological target: T22, kinome (kinase panel) (Homo sapiens, UniProt Q16659); settings: ERK3 (Entrez MAPK6); 1000 nM; read-out: Percent Control
T22 construct: purchased Eurofins DiscoverX

kinome (kinase panel) [23] = biological target: T23, kinome (kinase panel) (Homo sapiens, UniProt Q2M2I8); settings: AAK1; 1000 nM; read-out: Percent Control
T23 construct: purchased Eurofins DiscoverX

kinome (kinase panel) [24] = biological target: T24, kinome (kinase panel) (Homo sapiens, UniProt Q5S007, G2019S); settings: read-out: Percent Control
T24 construct: purchased Eurofins DiscoverX

kinome (kinase panel) [25] = biological target: T25, kinome (kinase panel) (Homo sapiens, UniProt Q6ZN16); settings: MAP3K15; 1000 nM; read-out: Percent Control
T25 construct: purchased Eurofins DiscoverX

kinome (kinase panel) [26] = biological target: T26, kinome (kinase panel) (Homo sapiens, UniProt Q92630); settings: DYRK2; 1000 nM; read-out: Percent Control
T26 construct: purchased Eurofins DiscoverX

kinome (kinase panel) [27] = biological target: T27, kinome (kinase panel) (Homo sapiens, UniProt Q99640); settings: PKMYT1; 1000 nM; read-out: Percent Control
T27 construct: purchased Eurofins DiscoverX

kinome (kinase panel) [28] = biological target: T28, kinome (kinase panel) (Homo sapiens, UniProt Q9HC98); settings: NEK6; 1000 nM; read-out: Percent Control
T28 construct: purchased Eurofins DiscoverX

kinome (kinase panel) [29] = biological target: T29, kinome (kinase panel) (Homo sapiens, UniProt Q9UPE1); settings: SRPK3; 1000 nM; read-out: Percent Control
T29 construct: purchased Eurofins DiscoverX

kinome (kinase panel) [30] = biological target: T30, kinome (kinase panel) (Homo sapiens, UniProt Q9Y2I7); settings: PIKFYVE; 1000 nM; read-out: Percent Control
T30 construct: purchased Eurofins DiscoverX

kinome (kinase panel) [31] = biological target: T31, kinome (kinase panel) (Homo sapiens, UniProt Q9Y2K2); settings: QSK (Entrez KIAA0999); 1000 nM; read-out: Percent Control
T31 construct: purchased Eurofins DiscoverX

kinome (kinase panel) [32] = biological target: T32, kinome (kinase panel) (Homo sapiens, UniProt Q9Y5S2); settings: MRCKB (Entrez CDC42BPB); 1000 nM; read-out: Percent Control
T32 construct: purchased Eurofins DiscoverX

T4 sequence (O94768 whole entry): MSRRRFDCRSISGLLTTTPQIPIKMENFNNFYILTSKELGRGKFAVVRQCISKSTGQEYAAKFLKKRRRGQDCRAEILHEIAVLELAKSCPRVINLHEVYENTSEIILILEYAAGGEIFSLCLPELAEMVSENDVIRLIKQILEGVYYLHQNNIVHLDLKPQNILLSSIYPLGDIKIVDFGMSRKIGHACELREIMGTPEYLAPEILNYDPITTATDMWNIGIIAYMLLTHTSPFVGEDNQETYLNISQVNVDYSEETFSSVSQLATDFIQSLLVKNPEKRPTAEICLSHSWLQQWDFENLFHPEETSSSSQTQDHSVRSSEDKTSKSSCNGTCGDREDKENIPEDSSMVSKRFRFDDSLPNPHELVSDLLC
T20 sequence (Q13163 whole entry): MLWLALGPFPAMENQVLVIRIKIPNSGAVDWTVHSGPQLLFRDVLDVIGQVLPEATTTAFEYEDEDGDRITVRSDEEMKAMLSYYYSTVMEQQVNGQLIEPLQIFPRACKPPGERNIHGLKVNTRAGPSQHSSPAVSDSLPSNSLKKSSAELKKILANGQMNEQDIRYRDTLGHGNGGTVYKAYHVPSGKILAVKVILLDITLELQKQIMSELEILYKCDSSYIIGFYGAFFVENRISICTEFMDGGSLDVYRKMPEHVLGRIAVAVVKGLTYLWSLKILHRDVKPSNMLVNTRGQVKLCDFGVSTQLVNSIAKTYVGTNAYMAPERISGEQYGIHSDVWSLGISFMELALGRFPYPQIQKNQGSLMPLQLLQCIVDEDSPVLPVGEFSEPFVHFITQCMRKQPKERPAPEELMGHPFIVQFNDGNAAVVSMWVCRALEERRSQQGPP
T17 sequence (P51955 whole entry): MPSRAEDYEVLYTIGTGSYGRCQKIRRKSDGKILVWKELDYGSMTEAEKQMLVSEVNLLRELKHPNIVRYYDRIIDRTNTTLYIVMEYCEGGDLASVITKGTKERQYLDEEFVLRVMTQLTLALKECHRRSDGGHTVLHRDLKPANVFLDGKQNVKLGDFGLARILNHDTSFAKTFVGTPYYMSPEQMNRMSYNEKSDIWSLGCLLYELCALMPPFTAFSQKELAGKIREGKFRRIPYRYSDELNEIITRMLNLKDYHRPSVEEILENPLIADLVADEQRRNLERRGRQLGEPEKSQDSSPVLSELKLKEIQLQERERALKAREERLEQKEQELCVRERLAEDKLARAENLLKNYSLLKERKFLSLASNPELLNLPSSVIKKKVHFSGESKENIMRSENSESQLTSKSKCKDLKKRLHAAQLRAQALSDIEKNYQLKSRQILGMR
T10 sequence (P15735 whole entry): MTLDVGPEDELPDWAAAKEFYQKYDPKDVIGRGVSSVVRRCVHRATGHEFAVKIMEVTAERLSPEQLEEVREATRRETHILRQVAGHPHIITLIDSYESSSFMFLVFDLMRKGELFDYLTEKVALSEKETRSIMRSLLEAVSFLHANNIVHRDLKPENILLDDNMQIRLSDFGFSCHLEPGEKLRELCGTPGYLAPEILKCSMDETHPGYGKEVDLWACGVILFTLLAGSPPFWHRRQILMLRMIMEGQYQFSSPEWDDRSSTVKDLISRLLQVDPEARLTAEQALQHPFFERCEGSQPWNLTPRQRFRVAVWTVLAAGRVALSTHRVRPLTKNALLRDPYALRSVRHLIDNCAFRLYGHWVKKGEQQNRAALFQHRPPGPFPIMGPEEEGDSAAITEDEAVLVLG
T3 sequence (O15197 32-1021): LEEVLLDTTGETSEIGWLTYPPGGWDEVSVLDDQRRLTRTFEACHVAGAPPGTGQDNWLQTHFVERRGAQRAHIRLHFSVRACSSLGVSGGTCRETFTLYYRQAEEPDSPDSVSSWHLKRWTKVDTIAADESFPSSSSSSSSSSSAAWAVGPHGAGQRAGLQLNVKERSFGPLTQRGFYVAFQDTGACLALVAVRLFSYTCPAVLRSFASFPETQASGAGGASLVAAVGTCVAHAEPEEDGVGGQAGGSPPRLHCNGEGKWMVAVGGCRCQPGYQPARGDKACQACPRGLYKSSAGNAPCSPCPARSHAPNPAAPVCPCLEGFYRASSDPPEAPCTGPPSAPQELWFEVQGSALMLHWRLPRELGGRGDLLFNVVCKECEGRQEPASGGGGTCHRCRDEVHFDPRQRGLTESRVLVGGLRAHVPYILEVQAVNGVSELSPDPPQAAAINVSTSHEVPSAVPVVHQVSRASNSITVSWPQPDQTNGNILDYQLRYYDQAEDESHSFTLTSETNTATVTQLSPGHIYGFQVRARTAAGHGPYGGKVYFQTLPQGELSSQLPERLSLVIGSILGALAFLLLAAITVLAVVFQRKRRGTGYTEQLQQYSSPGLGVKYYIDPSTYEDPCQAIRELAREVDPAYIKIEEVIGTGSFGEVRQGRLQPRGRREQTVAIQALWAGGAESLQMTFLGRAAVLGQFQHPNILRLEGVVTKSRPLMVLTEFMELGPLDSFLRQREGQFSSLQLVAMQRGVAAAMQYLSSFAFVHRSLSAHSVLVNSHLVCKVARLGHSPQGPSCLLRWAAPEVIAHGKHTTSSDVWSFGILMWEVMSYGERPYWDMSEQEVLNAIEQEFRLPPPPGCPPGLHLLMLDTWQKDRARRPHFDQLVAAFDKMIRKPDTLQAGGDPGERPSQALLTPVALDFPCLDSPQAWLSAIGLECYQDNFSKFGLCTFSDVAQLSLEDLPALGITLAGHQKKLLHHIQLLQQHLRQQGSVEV
T11 sequence (P31749 whole entry): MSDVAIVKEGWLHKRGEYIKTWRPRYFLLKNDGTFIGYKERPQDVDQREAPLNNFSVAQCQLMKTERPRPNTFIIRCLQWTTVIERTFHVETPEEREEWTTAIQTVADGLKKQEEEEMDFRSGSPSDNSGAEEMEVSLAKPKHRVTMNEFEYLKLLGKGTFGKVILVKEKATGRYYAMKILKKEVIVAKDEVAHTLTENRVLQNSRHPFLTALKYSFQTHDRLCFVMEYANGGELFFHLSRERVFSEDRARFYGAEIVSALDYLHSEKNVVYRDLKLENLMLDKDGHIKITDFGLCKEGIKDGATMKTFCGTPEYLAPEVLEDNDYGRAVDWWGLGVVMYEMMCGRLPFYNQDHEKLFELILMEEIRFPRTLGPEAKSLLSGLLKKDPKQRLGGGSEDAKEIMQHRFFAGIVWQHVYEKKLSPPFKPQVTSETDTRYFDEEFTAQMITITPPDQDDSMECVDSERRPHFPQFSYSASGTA
T15 sequence (P48729 whole entry): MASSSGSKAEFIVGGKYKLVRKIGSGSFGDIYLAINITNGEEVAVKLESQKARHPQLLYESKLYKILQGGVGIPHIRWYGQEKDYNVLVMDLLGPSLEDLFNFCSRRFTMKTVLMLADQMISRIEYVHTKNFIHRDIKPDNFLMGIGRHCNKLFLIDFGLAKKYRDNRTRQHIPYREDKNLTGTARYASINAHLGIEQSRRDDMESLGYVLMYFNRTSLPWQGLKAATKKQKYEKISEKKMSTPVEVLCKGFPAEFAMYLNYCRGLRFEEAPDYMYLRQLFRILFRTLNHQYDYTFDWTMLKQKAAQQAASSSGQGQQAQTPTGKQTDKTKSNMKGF
T26 sequence (Q92630 whole entry): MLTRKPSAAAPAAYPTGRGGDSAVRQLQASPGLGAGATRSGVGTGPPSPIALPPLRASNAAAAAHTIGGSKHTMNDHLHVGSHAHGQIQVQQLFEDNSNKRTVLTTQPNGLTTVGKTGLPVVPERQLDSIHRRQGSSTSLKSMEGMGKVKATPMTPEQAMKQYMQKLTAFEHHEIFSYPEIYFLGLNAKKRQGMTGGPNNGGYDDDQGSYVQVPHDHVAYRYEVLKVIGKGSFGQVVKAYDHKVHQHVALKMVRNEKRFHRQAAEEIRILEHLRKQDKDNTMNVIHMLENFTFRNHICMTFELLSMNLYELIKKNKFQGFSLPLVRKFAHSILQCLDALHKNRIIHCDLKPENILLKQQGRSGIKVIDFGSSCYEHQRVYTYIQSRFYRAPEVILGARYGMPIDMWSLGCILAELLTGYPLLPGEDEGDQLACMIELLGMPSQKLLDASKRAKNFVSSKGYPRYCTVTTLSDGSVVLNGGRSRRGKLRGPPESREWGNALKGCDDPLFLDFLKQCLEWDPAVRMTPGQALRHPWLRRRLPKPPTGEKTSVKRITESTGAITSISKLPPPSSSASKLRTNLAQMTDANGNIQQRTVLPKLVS
T19 sequence (Q08345 19-913): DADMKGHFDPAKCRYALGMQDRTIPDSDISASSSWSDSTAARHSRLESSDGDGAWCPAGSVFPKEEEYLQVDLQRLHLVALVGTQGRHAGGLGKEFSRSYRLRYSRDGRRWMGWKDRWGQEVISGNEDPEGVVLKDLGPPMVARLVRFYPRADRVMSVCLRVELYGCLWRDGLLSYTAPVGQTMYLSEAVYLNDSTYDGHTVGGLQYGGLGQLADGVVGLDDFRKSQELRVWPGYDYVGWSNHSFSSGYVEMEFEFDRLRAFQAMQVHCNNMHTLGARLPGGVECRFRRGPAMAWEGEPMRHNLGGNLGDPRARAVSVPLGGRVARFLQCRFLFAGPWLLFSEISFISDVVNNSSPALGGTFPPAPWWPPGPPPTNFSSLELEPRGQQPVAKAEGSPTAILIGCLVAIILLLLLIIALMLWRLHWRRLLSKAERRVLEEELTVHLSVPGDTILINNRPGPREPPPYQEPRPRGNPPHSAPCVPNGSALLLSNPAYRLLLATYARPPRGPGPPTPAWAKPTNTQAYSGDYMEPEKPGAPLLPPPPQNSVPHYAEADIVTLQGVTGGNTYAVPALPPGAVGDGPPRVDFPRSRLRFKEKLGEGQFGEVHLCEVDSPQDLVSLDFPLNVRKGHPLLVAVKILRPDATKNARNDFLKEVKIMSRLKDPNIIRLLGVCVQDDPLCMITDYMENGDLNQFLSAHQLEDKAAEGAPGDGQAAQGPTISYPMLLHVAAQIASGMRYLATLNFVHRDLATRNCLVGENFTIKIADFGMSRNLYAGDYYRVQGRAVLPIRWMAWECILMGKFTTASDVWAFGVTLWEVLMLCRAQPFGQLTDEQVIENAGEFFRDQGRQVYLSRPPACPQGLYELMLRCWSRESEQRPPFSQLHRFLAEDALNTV

Q: With `CN(C)C(=O)c1cc2cnc(Nc3ccc(-c4csc5c(=O)cc(N6CCOCC6)oc45)cc3)nc2n1C1CCCC1` [SRX3177] as the compound, how does the remaining binding at 1 µM (kinome (kinase panel) [1]) read?
A: The remaining binding at 1 µM was 19%.

Q: And the remaining binding at 1 µM (kinome (kinase panel) [2])?
A: Its remaining binding at 1 µM is 0%.

Q: And the remaining binding at 1 µM (kinome (kinase panel) [3])?
A: Its remaining binding at 1 µM is 4.9%.

Q: And the remaining binding at 1 µM (kinome (kinase panel) [4])?
A: Its remaining binding at 1 µM is 100%.

Q: What about the remaining binding at 1 µM (kinome (kinase panel) [5]) of the same compound?
A: Its remaining binding at 1 µM is 100%.

Q: And the remaining binding at 1 µM (kinome (kinase panel) [6])?
A: The remaining binding at 1 µM was 46%.

Q: What about the remaining binding at 1 µM (kinome (kinase panel) [7]) of the same compound?
A: The remaining binding at 1 µM was 44%.

Q: And the remaining binding at 1 µM (kinome (kinase panel) [8])?
A: Its remaining binding at 1 µM is 100%.

Q: What about the remaining binding at 1 µM (kinome (kinase panel) [9]) of the same compound?
A: The remaining binding at 1 µM was 74%.

Q: What about the remaining binding at 1 µM (kinome (kinase panel) [10]) of the same compound?
A: Its remaining binding at 1 µM is 97%.

Q: And the remaining binding at 1 µM (kinome (kinase panel) [11])?
A: The remaining binding at 1 µM was 100%.

Q: What about the remaining binding at 1 µM (kinome (kinase panel) [12]) of the same compound?
A: Its remaining binding at 1 µM is 22%.

Q: What about the remaining binding at 1 µM (kinome (kinase panel) [13]) of the same compound?
A: Its remaining binding at 1 µM is 81%.

Q: What about the remaining binding at 1 µM (kinome (kinase panel) [14]) of the same compound?
A: Its remaining binding at 1 µM is 62%.

Q: And the remaining binding at 1 µM (kinome (kinase panel) [15])?
A: Its remaining binding at 1 µM is 83%.

Q: And the remaining binding at 1 µM (kinome (kinase panel) [16])?
A: Its remaining binding at 1 µM is 83%.

Q: And the remaining binding at 1 µM (kinome (kinase panel) [17])?
A: Its remaining binding at 1 µM is 90%.

Q: And the remaining binding at 1 µM (kinome (kinase panel) [18])?
A: The remaining binding at 1 µM was 69%.

Q: What about the remaining binding at 1 µM (kinome (kinase panel) [19]) of the same compound?
A: The remaining binding at 1 µM was 72%.

Q: What about the remaining binding at 1 µM (kinome (kinase panel) [20]) of the same compound?
A: The remaining binding at 1 µM was 12%.

Q: And the remaining binding at 1 µM (kinome (kinase panel) [21])?
A: Its remaining binding at 1 µM is 60%.

Q: What about the remaining binding at 1 µM (kinome (kinase panel) [22]) of the same compound?
A: Its remaining binding at 1 µM is 100%.

Q: What about the remaining binding at 1 µM (kinome (kinase panel) [23]) of the same compound?
A: The remaining binding at 1 µM was 49%.

Q: What about the remaining binding at 1 µM (kinome (kinase panel) [24]) of the same compound?
A: Its remaining binding at 1 µM is 44%.

Q: And the remaining binding at 1 µM (kinome (kinase panel) [25])?
A: The remaining binding at 1 µM was 100%.

Q: What about the remaining binding at 1 µM (kinome (kinase panel) [26]) of the same compound?
A: The remaining binding at 1 µM was 69%.

Q: And the remaining binding at 1 µM (kinome (kinase panel) [27])?
A: The remaining binding at 1 µM was 88%.

Q: What about the remaining binding at 1 µM (kinome (kinase panel) [28]) of the same compound?
A: Its remaining binding at 1 µM is 100%.

Q: And the remaining binding at 1 µM (kinome (kinase panel) [29])?
A: Its remaining binding at 1 µM is 35%.

Q: What about the remaining binding at 1 µM (kinome (kinase panel) [30]) of the same compound?
A: Its remaining binding at 1 µM is 2.4%.

Q: What about the remaining binding at 1 µM (kinome (kinase panel) [31]) of the same compound?
A: The remaining binding at 1 µM was 59%.

Q: And the remaining binding at 1 µM (kinome (kinase panel) [32])?
A: The remaining binding at 1 µM was 96%.
